Measured values published in patent US11084809B2, “N-((HET)arylmethyl)-heteroaryl-carboxamides compounds as kallikrein inhibitors” (KALVISTA PHARMACEUTICALS LIMITED, priority 2014, dated 2021).

Experiments:
Assay type in all cases: biochemical
Human KLK1 = Human KLK1 (Homo sapiens (Human), UniProt P06870); experiment: Determination of the IC50 for KLK1; details: human KLK1, 25° C., substrate H-DVal-Leu-Arg-AFC
Protocol: Determination of the IC50 for KLK1
(§1) Human KLK1 (Callbiochem) was incubated at 25° C. with the fluorogenic substrate H-DVal-Leu-Arg-AFC and various concentrations of the test compound. Residual enzyme activity (initial rate of reaction) was determined by measuring the change in […] at 410 nm and the IC50 value for the test compound was determined.

Human XIa = Human XIa (Homo sapiens (Human), UniProt P03951); experiment: Determination of the % inhibition for XIa; details: 40 μM test compound, 25° C.
Sequence of Human XIa (P03951 388-625): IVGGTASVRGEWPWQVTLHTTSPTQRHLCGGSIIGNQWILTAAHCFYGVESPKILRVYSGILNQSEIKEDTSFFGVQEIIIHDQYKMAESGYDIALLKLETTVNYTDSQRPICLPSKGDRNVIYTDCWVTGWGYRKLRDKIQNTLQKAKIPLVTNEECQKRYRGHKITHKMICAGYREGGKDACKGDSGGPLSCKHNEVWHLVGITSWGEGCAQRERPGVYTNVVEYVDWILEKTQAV
Sequence of Human XIa (P03951 19-387 partner): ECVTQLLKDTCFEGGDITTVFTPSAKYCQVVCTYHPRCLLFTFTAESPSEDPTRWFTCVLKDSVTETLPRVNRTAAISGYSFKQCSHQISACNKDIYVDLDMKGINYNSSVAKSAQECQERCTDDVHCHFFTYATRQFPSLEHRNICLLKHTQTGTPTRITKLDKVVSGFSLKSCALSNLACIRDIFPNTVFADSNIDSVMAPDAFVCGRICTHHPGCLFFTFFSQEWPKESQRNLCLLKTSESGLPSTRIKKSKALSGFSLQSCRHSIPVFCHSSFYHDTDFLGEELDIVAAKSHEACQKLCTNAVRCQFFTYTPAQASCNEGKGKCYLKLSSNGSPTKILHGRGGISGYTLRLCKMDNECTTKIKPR
Protocol: Determination of the % Inhibition for XIa
Human XIa (Enzyme Research Laboratories) was incubated at 25° C. with the fluorogenic substrate Z-Gly-Pro-Arg-AFC and 40 μM of the test compound. Residual enzyme activity (initial rate of reaction) was determined by measuring the change in optical absorbance at 410 nm.

Human plasma kallikrein = Human plasma kallikrein (Homo sapiens (Human), UniProt P03952); experiment: Determination of the IC50 for plasma kallikrein; details: read-out: IC50 (human PKal)
Sequence of Human plasma kallikrein (P03952 391-638): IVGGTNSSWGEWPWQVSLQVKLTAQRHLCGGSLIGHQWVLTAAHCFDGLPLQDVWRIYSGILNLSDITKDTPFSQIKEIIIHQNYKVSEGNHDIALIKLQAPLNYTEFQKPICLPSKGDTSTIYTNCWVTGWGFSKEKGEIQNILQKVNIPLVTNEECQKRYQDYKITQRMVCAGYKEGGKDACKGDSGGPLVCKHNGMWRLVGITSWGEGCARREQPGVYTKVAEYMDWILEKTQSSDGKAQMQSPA
Sequence of Human plasma kallikrein (P03952 20-390 partner): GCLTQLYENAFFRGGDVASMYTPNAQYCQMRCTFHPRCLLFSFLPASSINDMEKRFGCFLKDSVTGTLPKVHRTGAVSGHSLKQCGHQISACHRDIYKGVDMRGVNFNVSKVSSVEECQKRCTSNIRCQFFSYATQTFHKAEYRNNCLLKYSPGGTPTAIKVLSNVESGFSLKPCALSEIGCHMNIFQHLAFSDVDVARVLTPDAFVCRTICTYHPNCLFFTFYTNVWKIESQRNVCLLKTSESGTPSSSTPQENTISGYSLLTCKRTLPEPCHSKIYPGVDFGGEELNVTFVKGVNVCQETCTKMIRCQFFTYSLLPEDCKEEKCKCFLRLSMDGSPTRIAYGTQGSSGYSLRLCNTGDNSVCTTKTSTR
Protocol: Determination of the IC50 for plasma kallikrein
as §1, with “plasma kallikrein (Protogen)” for “KLK1 (Callbiochem)”, “H-DPro-Phe-Arg-AFC” for “H-DVal-Leu-Arg-AFC”

Sequence of Human KLK1 (P06870 25-262): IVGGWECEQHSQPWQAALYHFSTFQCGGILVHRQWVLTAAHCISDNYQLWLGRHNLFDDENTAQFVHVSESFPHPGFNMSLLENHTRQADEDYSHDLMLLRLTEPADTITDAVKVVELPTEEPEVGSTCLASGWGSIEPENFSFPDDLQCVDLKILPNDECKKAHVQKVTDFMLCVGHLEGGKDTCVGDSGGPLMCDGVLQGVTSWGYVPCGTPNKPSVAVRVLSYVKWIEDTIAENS

Compound | IC50 (Human KLK1) | % Inhibition @ 40 μM (human FXIa) (Human XIa) | IC50 (Human plasma kallikrein)
NC(=O)c1cccc(CNC(=O)c2cn(Cc3ccc(Cn4ccccc4=O)cc3)nc2C2CC2)c1 [Example 49, N-[(3-carbamoylphenyl)methyl]-3-cyclopropyl-1-({4-[(2-oxopyridin-1-yl)methyl]phenyl}methyl)pyrazole-4-carboxamide] |  | 0% | 
COc1cccc(CNC(=O)c2cn(Cc3ccc(Cn4ccccc4=O)cc3)nc2C2CC2)c1F [Example 52, 3-cyclopropyl-N-[(2-fluoro-3-methoxyphenyl)methyl]-1-({4-[(2-oxopyridin-1-yl)methyl]phenyl}methyl)pyrazole-4-carboxamide] |  | 1% | 
N-[(2,6-dimethylphenyl)methyl]-1-({4-[(4-methylpyrazol-1-yl)methyl]phenyl}methyl)-3-(trifluoromethyl)pyrazole-4-carboxamide [Example 25] | > 10000 nM |  | 1840 nM

Continued, values first:

IC50 (Human KLK1) | % Inhibition @ 40 μM (human FXIa) (Human XIa) | IC50 (Human plasma kallikrein) | Compound
> 10000 nM | 0% |  | CCOc1cccc(CNC(=O)c2cn(Cc3ccc(Cn4cc(C)cn4)cc3)nc2C(F)(F)F)c1 [Example 6, N-[(3-ethoxyphenyl)methyl]-1-({4-[(4-methylpyrazol-1-yl)methyl]phenyl}methyl)-3-(trifluoromethyl)pyrazole-4-carboxamide]
 | 0% |  | Nc1nn(Cc2ccc(Cn3ccccc3=O)cc2)cc1C(=O)NCc1ccc(OC(F)(F)F)cc1 [Example 58, 3-amino-1-({4-[(2-oxopyridin-1-yl)methyl]phenyl}methyl)-N-{[4-(trifluoromethoxy)phenyl]methyl}pyrazole-4-carboxamide]
> 10000 nM |  | 717 nM | N-[(2,4-dimethylphenyl)methyl]-1-({4-[(4-methylpyrazol-1-yl)methyl]phenyl}methyl)-3-(trifluoromethyl)pyrazole-4-carboxamide [Example 24]
